Assay results: paper PMC5429621 (Scientific Reports, 2017)

Key:
[1] = target: T1, hP2X7-2Nβ/P2X1 chimera 81–94 (Homo sapiens, UniProt Q99572, F88W/H85P/I21V/K81P/K82G/M24R/N16P/N25R/Q22R/R20V/S23N/S86Q/T19I/T90V/T94V/V84G/Y26L); assay: two-electrode voltage clamp, Xenopus oocytes; format: cell-based; conditions: 81–94 chimera
T1 construct: expressed in transfected cells; host or cells: Xenopus laevis oocytes (cRNA injected)
T1 sequence (Q99572 1-595 N16P/T19I/R20V/I21V/Q22R/S23N/M24R/N25R/Y26L/K81P/K82G/V84G/H85P/S86Q/F88W/T90V/T94V): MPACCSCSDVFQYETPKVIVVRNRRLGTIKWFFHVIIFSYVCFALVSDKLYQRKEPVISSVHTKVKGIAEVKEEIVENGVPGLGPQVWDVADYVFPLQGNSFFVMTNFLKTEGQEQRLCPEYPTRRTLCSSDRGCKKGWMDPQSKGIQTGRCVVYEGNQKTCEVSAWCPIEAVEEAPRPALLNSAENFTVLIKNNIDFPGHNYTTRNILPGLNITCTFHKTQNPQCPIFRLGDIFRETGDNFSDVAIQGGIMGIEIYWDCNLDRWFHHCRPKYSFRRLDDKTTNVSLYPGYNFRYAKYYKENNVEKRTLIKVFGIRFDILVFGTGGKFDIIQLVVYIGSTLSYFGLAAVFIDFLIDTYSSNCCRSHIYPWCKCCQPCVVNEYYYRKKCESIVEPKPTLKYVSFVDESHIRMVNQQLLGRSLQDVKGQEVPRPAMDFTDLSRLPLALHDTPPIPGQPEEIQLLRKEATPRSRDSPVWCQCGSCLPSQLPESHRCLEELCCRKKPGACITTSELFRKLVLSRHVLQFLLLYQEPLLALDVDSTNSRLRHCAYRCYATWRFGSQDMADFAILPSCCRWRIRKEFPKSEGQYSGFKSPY
Excerpt: (§1) The hP2X1R was a gift from Dr Lin-Hua Jiang (University of Leeds, UK) and the hP2X1R cDNA has been described previously. Chimeras were generated by megaprimer-mediated domain swapping. In addition to chimeras, point mutations, deletions and insertions were made using the QuikChange (Stratagene) or Q5 (New England Bioscience) mutagenesis kits. The production of the correct mutations and absence of coding errors was verified by DNA sequencing (Automated ABI Sequencing Service, University of Leicester, UK).
P2XR constructs were transcribed to produce sense-strand cRNA (mMessage mMachine, Ambion, Austin, TX). Manually defoliculated stage V Xenopus laevis oocytes were injected with 50 nl (50 ng) of cRNA using an Inject + Matic microinjector (J.A. Gaby, InjectMatic, Geneva, Switzerland) and stored at 16 °C in ND96 buffer (in mM, NaCl 96, KCl 2, CaCl2 1.8, MgCl2 1, sodium pyruvate 5, HEPES 5 (pH 7.6) supplemented with 50 µg/ml gentamycin and 50 µg/ml tetracycline). For electrophysiological recordings (3–7 days post-injection) oocytes were bathed in divalent free ND96 buffer (in mM, NaCl 96, KCl 2, sodium pyruvate 5, HEPES 5 and 0.1 flufenamic acid, pH 7.6).
ATP (sodium salt, Sigma) was applied via a U-tube perfusion system for 3 s at 3–5 minute intervals to allow reproducible responses to be recorded. […] To standardize for any change in ATP sensitivity at mutant receptors antagonists were co-applied with an EC90 concentration of ATP.
Concentration response curves were normalized to the maximal response and fitted with the Hill equation (variable slope) with GraphPad Prism 6 (Graphpad software, San Diego, CA). […] Individual concentration response curves were generated for individual experiments and statistical analysis was carried out on the data generated. In the figures the inhibition curves are fitted to the mean normalized data. Any significant differences were calculated by one-way analysis of variance, followed by Bonferroni’s test (using GraphPad Prism 6). Data are shown as mean ± SEM.

[2] = test system: other P2XR subtypes; conditions: cited from earlier work
[3] = test system: tumour growth; set-up: method as in PMID 22505653; conditions: cited from earlier work
[4] = test system: hP2X7-2Nβ 74–79 C mutants; assay: two-electrode voltage clamp, Xenopus oocytes; format: cell-based, human; conditions: response to EC90 ATP
Excerpt: as §1
P2XR constructs were transcribed to produce sense-strand cRNA (mMessage mMachine, Ambion, Austin, TX). […]
Two-electrode voltage clamp recordings were carried out using a GeneClamp 500B amplifier with a Digidata 1322 A analog to digital convertor and pCLAMP 8.2 acquisition software (Molecular Devices, Menolo Park, CA) at a holding potential of −60 mV. ATP (sodium salt, Sigma) was applied via a U-tube perfusion system for 3 s at 3–5 minute intervals to allow reproducible responses to be recorded. […]
Concentration response curves were normalized to the maximal response and fitted with the Hill equation (variable slope) with GraphPad Prism 6 (Graphpad software, San Diego, CA). […] Any significant differences were calculated by one-way analysis of variance, followed by Bonferroni’s test (using GraphPad Prism 6). […]

[5] = target: T2, P2X7 73–79 deletion mutant (hP2X7-2Nβ background) (Homo sapiens, UniProt Q99572, DEL73-79/I21V/M24R/N16P/N25R/Q22R/R20V/S23N/T19I/Y26L); assay: two-electrode voltage clamp, Xenopus oocytes; format: cell-based
T2 construct: expressed in transfected cells; host or cells: Xenopus laevis oocytes (cRNA injected)
T2 sequence (Q99572 with tags, fused parts or gaps N16P/T19I/R20V/I21V/Q22R/S23N/M24R/N25R/Y26L/DEL73-79): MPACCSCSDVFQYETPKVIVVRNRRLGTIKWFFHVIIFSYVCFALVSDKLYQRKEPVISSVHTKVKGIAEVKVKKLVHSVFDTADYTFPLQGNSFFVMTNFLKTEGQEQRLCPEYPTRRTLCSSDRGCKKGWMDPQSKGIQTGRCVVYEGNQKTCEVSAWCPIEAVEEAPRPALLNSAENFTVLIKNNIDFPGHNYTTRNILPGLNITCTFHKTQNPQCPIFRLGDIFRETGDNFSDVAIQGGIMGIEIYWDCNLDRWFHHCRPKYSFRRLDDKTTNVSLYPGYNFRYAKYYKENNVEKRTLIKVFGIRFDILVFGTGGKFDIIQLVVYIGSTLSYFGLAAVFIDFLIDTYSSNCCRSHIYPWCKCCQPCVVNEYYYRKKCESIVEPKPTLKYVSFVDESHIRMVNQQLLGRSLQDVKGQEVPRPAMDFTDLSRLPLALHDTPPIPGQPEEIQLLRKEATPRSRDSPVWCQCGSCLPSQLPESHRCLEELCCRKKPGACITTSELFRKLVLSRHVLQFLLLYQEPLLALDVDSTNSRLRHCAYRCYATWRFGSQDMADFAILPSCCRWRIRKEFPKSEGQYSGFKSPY

[6] = target: P2X7 receptor (P2X7R); conditions: read-out: ATP EC50, physiological concentrations of calcium and magnesium; cited from earlier work

Structure (SMILES) | peak current to ATP, % of the control response ([1]; in the presence of 3 µM AZ10606120) [%] | effect at other P2XR subtypes [2] | effect of AZ10606120 treatment in animal studies (tumour) [3] | level of inhibition to 30 nM AZ10606120 [4] | increase in ATP sensitivity ([5]; 73–79 del, relative to P2X7-2Nβ) | Peak amplitude ([5]; 73–79 delete, maximal ATP) [μA] | Peak amplitude ([1]; maximal ATP) [μA] | EC50 [6] [µM]
Cl.Cl.O=C(CC12CC3CC(CC(C3)C1)C2)Nc1cccc2nc(NCCNCCO)ccc12 [AZ10606120, N-[2-[[2-[(2-Hydroxyethyl)amino]ethyl]amino]-5-quinolinyl]-2-tricyclo[3.3.1.13,7]dec-1-ylacetamide dihydrochloride] | 53.6 ± 2.6 | little or no effect | reduced tumour growth | ~ 70% | – | – | – | –
Nc1ncnc2c1ncn2[C@@H]1O[C@H](COP(=O)(O)OP(=O)(O)OP(=O)(O)O)[C@@H](O)[C@H]1O [ATP] | – | – | – | – | 2–3 fold | 2.05 ± 0.23 | 0.76 ± 0.13 | 300 to 1000
